The text below walks through data of patent US6855730B2, “3-methylidenyl-2-indolinone modulators of protein kinase” (Sugen, Inc., priority 1998, dated 2005).

Structures can show the parent of a compound that is named as a salt. Bounds are passed on as bounds.

The target of this experiment is T1, chimeric receptor containing the EGFR extracellular domain and intracellular HER2 kinase domain (Homo sapiens, UniProt P04626).
T1 construct: fused on or other part: EGFR ectodomain + HER2 intracellular part, ATP-site indolinones: HER2's kinase
T1 sequence (P04626 720-1255 limits assumed, change not shown): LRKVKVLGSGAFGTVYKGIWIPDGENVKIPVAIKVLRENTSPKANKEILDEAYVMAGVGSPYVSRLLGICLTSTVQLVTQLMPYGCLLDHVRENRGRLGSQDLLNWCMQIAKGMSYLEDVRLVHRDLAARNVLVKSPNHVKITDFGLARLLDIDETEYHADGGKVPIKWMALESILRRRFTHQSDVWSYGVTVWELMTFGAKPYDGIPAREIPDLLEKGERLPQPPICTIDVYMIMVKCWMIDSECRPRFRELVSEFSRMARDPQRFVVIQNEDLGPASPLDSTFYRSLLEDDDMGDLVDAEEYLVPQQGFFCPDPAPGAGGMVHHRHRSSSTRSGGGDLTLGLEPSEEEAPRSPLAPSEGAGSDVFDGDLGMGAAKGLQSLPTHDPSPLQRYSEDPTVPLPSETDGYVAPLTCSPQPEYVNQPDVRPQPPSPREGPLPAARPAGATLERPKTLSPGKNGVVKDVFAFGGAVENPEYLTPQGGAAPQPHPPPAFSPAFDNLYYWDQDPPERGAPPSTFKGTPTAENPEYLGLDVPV
Nature of the experiment: EGF Receptor-HER2 chimeric receptor assay in whole cells (ELISA). Format: cell-based. Conditions: read-out: HER-2 kinase IC50. The method in brief: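 NIH3T3 cells overexpressing EGFR-extracellular/HER2-kinase chimera, seeded in 0.5% serum for ~40 h, were pretreated with compound (1% final DMSO) 2 h at 37 °C, then stimulated with 100 nM EGF for 5 min. Lysates captured on anti-EGFR plates; phosphotyrosine detected by anti-Ptyr/HRP ELISA at 410 nm as percent inhibition.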
(An ELISA detects its analyte on a solid surface through an enzyme-linked reagent.)
`Cc1c(/C=C2\C(=O)Nc3ccc(C(=O)O)cc32)[nH]c2ccccc12` [Example 156, 3-(3-Methyl-1H-indol-2-ylmethylene)-2-oxo-2,3-dihydro-1H-indole-5-carboxylic acid (piperidine salt)]: the IC50 is above 100 µM.
In the case of `COc1ccc(/C=C2/C(=O)Nc3ccc(Cl)cc32)cc1-c1cccs1` [Example 59, 5-chloro-3-(4-Methoxy-3-thiophen-2-ylbenzylidene)-1,3-dihydroindol-2-one] it was above 100 µM; in that of `COc1cc(C)c(C=C2C(=O)Nc3ccc(Cl)cc32)cc1C(C)C` [Example 9, 5-Chloro-3-(5-isopropyl-4-methoxy-2-methylbenzylidene)-1,3-dihydroindol-2-one], above 100 µM; in that of `COc1ccc(/C=C2/C(=O)Nc3ccccc32)cc1C1CCCCC1` [Example 12, 3-(3-Cyclohexyl-4-methoxybenzylidene)-1,3-dihydroindol-2-one], above 100 µM.
As to `COc1ccc(/C=C2/C(=O)Nc3cc(NC(C)=O)ccc32)cc1-c1cccs1` [Example 31, N-[3-(4-Methoxy-3-thiophen-2-ylbenzylidene)-2-oxo-2,3-dihydro-1H-indol-6-yl]-acetamide], the half-maximal inhibitory concentration (IC50) was determined as 12.9 µM.
On to `CC(C)c1cc(/C=C2/C(=O)Nc3ccc(Cl)cc32)cc(C(C)C)c1OCCN1CCOCC1` [Example 24, 5-chloro-3-[3,5-diisopropyl-4-(2-morpholin-4-ylethoxy)-benzylidene]-1,3-dihydroindol-2-one], for which the half-inhibitory concentration (IC50) came out at 13.6 µM.
With `COc1ccc(/C=C2/C(=O)Nc3ncccc32)cc1-c1ccccc1` [Example 71, 3-(6-Methoxybiphenyl-3-ylmethylene)-1,3-dihydropyrrolo[2,3-b]pyridin-2-one] the figure was above 100 µM; with `COc1ccc(/C=C2/C(=O)Nc3ccc(Cl)cc32)cc1C1CCCCC1` [Example 51, 5-Chloro-3-(3-cyclohexyl-4-methoxybenzylidene)-1,3-dihydroindol-2-one], 71.8 µM; with `COc1cc(C)c(/C=C2/C(=O)Nc3ccc(F)cc32)cc1C(C)C` [Example 30, 5-Fluoro-3-(5-isopropyl-4-methoxy-2-methyl-benzylidene)-1,3-dihydroindol-2-one], 28 µM.
With `CC(=O)Nc1ccc2c(c1)NC(=O)/C2=C/c1ccc(OCCN2CCOCC2)c(-c2cccs2)c1` [Example 40, N-{3-[4-(2-Morpholin-4-ylethoxy)-3-thiophen-2-ylbenzylidene]-2-oxo-2,3-dihydro-1H-indol-6-yl}-acetamide] the figure was 36.6 µM.
In the case of `COc1cc(C)c(/C=C2/C(=O)Nc3ccc(Br)cc32)cc1C(C)C` [Example 36, 5-Bromo-3-(5-isopropyl-4-methoxy-2-methyl-benzylidene)-1,3-dihydroindol-2-one] it was 20.7 µM.
On to `Cc1cc(CCC(=O)O)c(/C=C2\C(=O)Nc3cc(-c4ccc(F)cc4)ccc32)[nH]1` [Example 107, 3-{2-[6-(4-Fluorophenyl)-2-oxo-1,2-dihydroindol-3-ylidenemethyl]-5-methyl-1H-pyrrol-3-yl}propionic acid], for which the IC50 was above 100 µM.
With `COc1ccc2c(c1)/C(=C\c1cc(C(C)C)c(OC)c(C(C)C)c1)C(=O)N2` [Example 17, 3-(3,5-Diisopropyl-4-methoxybenzylidene)-5-methoxy-1,3-dihydroindol-2-one] the figure was 7.8 µM; with `COc1ccc(/C=C2/C(=O)Nc3ccc(F)cc32)cc1C1CCCCC1` [Example 43, 3-(3-Cyclohexyl-4-methoxybenzylidene)-5-fluoro-1,3-dihydroindol-2-one], 52.9 µM.
Take `COc1ccc(/C=C2/C(=O)Nc3ccc(CCN4CCOCC4)cc32)cc1-c1ccsc1` [Example 26, 3-(4-Methoxy-3-thiophen-3-ylbenzylidene)-5-(2-morpholin-4-yl-ethyl)-1,3-dihydroindol-2-one]: the IC50 stood at 15.3 µM.
For `COc1ccc(/C=C2/C(=O)Nc3ccccc32)cc1-c1ccccc1` [Example 65, 3-(6-Methoxybiphenyl-3-ylmethylene)-1,3-dihydroindol-2-one], the half-maximal inhibitory concentration (IC50) is above 100 µM.
With `COc1c(C)cc(/C=C2/C(=O)Nc3ncccc32)cc1C` [Example 56, 3-(4-Methoxy-3,5-dimethylbenzylidene)-1,3-dihydropyrrolo[2,3-b]pyridin-2-one], the half-maximal inhibitory concentration (IC50) is 96.2 µM.
As to `COc1ccc(/C=C2\C(=O)Nc3cccc(C)c32)cc1C(C)C` [Example 38, 3-(3-Isopropyl-4-methoxybenzylidene)-4-methyl-1,3-dihydroindol-2-one], the half-inhibitory concentration (IC50) came to 32.3 µM.
With `COc1cc(C)c(C=C2C(=O)Nc3cc(NC(C)=O)ccc32)cc1C(C)C` [Example 27, N-[3-(5-Isopropyl-4-methoxy-2-methyl-benzylidene)-2-oxo-2,3-dihydro-1H-indol-6-yl]-acetamide] the figure was 15.8 µM; with `COc1cc(C=C2C(=O)Nc3ccccc32)c(-c2ccccc2OC)cc1OC` [Example 49, 3-(4,5,2′-Trimethoxybiphenyl-2-ylmethylene)-1,3-dihydroindol-2-one], 65.5 µM; with `CCOC(=O)c1c(C)[nH]c(/C=C2\C(=O)Nc3cc(-c4ccccc4OC)ccc32)c1CCC(=O)O` [Example 110, 4-(2-Carboxyethyl)-5-[6-(2-methoxyphenyl)-2-oxo-1,2-dihydro-indol-3-ylidenemethyl]-2-methyl-1H-pyrrol-3-yl-carboxylic acid ethyl ester], above 100 µM.
Take `Cc1cccc2c1/C(=C/c1cc3ccccc3[nH]1)C(=O)N2` [Example 166, 3-(1H-indol-2-ylmethylene)-4-methyl-1,3-dihydro-indol-2-one]: the IC50 was above 100 µM.
In the case of `COc1ccc(/C=C2/C(=O)Nc3ccccc32)cc1-c1ccsc1` [Example 35, 3-(4-Methoxy-3-thiophen-3-ylbenzylidene)-1,3-dihydroindol-2-one] it was 20.7 µM.
In the case of `COc1c(C(C)C)cc(/C=C2/C(=O)Nc3cc(N)ccc32)cc1C(C)C` [Example 32, 6-Amino-3-(3,5-diisoprotyl-4-methoxy-benzylidene)-1,3-dihydroindol-2-one] it was 90.2 µM.
For `COc1ccc(/C=C2/C(=O)Nc3ccc(Cl)cc32)cc1-c1ccccc1` [Example 67, 5-Chloro-3-(6-methoxybiphenyl-3-ylmethylene)-1,3-dihydroindol-2-one], the IC50 is above 100 µM.
On to `COc1c(C(C)C)cc(/C=C2/C(=O)Nc3ncccc32)cc1C(C)C` [Example 74, 3-(3,5-Diisopropyl-4-methoxybenzylidene)-1,3-dihydropyrrolo[2,3-b]pyridin-2-one], for which the IC50 is above 100 µM.
Turning to `COc1cc(C)c(/C=C2/C(=O)Nc3ncccc32)cc1C(C)C` [Example 45, 3-(5-Isopropyl-4-methoxy-2-methylbenzylidene)-1,3-dihydro-pyrrolo[2,3-b]pyridin-2-one], the concentration for half-maximal inhibition (IC50) was found to be 56.9 µM.
In the case of `CCOC(=O)c1c(C)[nH]c(/C=C2\C(=O)Nc3cc(-c4ccc(F)cc4)ccc32)c1CCC(=O)O` [Example 108, 4-(2-Carboxyethyl)-5-[6-(4-fluorophenyl)-2-oxo-1,2-dihydro-indol-3-ylidenemethyl]-2-methyl-1H-pyrrole-3-carboxylic acid ethyl ester] it was above 100 µM; in that of `COc1cc(C)c(C=C2C(=O)Nc3ccccc32)cc1C(C)C` [Example 8, 3-(5-Isopropyl-4-methoxy-2-methylbenzylidene)-1,3-dihydroindol-2-one], 8.36 µM; in that of `Cc1cccc2c1/C(=C/c1ccc3c(c1)CCC(C)(C)O3)C(=O)N2` [Example 41, 3-(2,2-Dimethylchroman-6-ylmethylene)-4-methyl-1,3-dihydroindol-2-one], 39.8 µM.
With `Cc1cc(CCC(=O)O)c(/C=C2\C(=O)Nc3ccc(Cl)cc32)[nH]1` [Example 111, 3-[2-(5-Chloro-2-oxo-1,2-dihydroindol-3-ylidenemethyl)-5-methyl-1H-pyrrol-3-yl]propionic acid] the figure was above 100 µM; with `CC1(C)CCc2cc(C=C3C(=O)Nc4ccc(Br)cc43)ccc2O1` (racemic) [Example 34, 5-Bromo-3-(2,2-dimethylchroman-6-ylmethylene)-1,3-dihydroindol-2-one], above 100 µM.
With `COc1c(C(C)C)cc(/C=C2/C(=O)Nc3cc(F)ccc32)cc1C(C)C` [Example 22, 3-(3,5-Diisopropyl-4-methoxybenzylidene)-6-fluoro-1,3-dihydroindol-2-one] the figure was 12.4 µM.
Regarding `O=C1Nc2ccccc2/C1=C\c1ccc2c(c1)CCO2` [Example 66, 3-(2,3-Dihydrobenzofuran-5-ylmethylene)-1,3-dihydroindol-2-one], the IC50 is above 100 µM.
In the case of `CC(=O)Nc1ccc2c(c1)NC(=O)/C2=C/c1ccc(OCCN2CCOCC2)c(C(C)(C)C)c1` [Example 55, N-{3-[3-tert-Butyl-4-(2-morpholin-4-ylethoxy)-benzylidene]-2-oxo-2,3-dihydro-1H-indol-6-yl}-acetamide], the IC50 was 89.3 µM.
Consider `COc1ccc(/C=C2/C(=O)Nc3ccc(F)cc32)cc1-c1ccccc1` [Example 37, 5-Fluoro-3-(6-methoxybiphenyl-3-ylmethylene)-1,3-dihydroindol-2-one], for which the half-inhibitory concentration (IC50) stood at 22.5 µM.
Consider `CCOc1cccc(-c2cc(OC)c(OC)cc2/C=C2/C(=O)Nc3ccccc32)c1` [Example 58, 3-(3′-Ethoxy-4,5-dimethoxybiphenyl-2-ylmethylene)-1,3-dihydroindol-2-one], for which the IC50 was above 100 µM.
Regarding `COc1ccccc1-c1ccc2c(c1)NC(=O)/C2=C\c1[nH]c(C)cc1CCC(=O)O` [Example 109, 3-{2-[6-(2-Methoxyphenyl)-2-oxo-1,2-dihydroindol-3-ylidenemethyl]-5-methyl-1H-pyrrol-3-yl}-propionic acid], the IC50 is above 100 µM.
In the case of `CC1(C)CCc2cc(/C=C3/C(=O)Nc4ccc(F)cc43)ccc2O1` [Example 23, 3-(2,2-Dimethylchroman-6-ylmethylene)-5-fluoro-1,3-dihydroindol-2-one] it was 33.2 µM.

In general, IC50 refers to the concentration that inhibits the measured activity by half.
